Results published in patent publication US6444696B1, “Pyrazole derivatives P38 MAP kinase inhibitors” (Syntex (U.S.A.) LLC, priority 1998, dated 2002).

Tests used:
[1] = system: TNF-α Production In THP 1 Cells; assay: Inhibition of LPS-induced TNF-α production in THP-1 cells, in vitro assay (ELISA); assay type: cell-based; settings: Homo sapiens, LPS 0.5 μg/ml, 2 h, TNF-α by ELISA, read-out: IC50, μM (inhibition of TNF-α release)
Experimental: The ability of the compounds of this invention to inhibit the TNF-α release was determined using a minor modification of the methods described in described in Blifeld, C. et al. Transplantation, Vol. 51(2), 498-503, (1991).
THP-1 cells were suspended in culture medium [RPMI (Gibco-BRL, Gailthersburg, Md.) containing 15% fetal bovine serum, 0.02 mM 2-mercaptoethanol], at a concentration of 2.5×10^6 cells/ml and then plated in 96 well plate (0.2 ml aliquots in each well). Test compounds were dissolved in DMSO and then diluted with the culture medium such that the final DMSO concentration was […]. 20 μl aliquots of test solution or only medium with DMSO (control) were added to each well. The cells were incubated for 30 min., at 37° C. LPS (Sigma, St. Louis, Mo.) was added to the wells at a final concentration of 0.5 μg/ml, and cells were incubated for an additional 2 h. At the end of the incubation period, culture supernatants were collected and the amount of TNF-α present was determined using an ELISA assay as described below.
The amount of human TNF-α present was determined by a specific trapping ELISA assay using two anti-TNF-α antibodies (2TNF-H22 and 2TNF-H34) described in Reimund, J. M., et al. GUT. Vol. 39(5), 684-689 (1996).
Polystyrene 96-well plates were coated with 50 μl per well of antibody 2TNF-H22 in PBS (10 μg/ml) and incubated in a humidified chamber at 4° C. overnight. The plates were washed with PBS and then blocked with 5% nonfat-dry milk in PBS for 1 hour at room temperature and washed with 0.1% BSA (bovine serum albumin) in PBS.
TNF standards were prepared from a stock solution of human recombinant TNF-α (R&D Systems, Minneapolis, Minn.). The concentration of the standards in the assay began at 10 ng/ml followed by 6 half log serial dilution's.
25 μl aliquots of the above culture supernatants or TNF standards or only medium (control) were mixed with 25 μl aliquots of biotinylated monoclonal antibody 2TNF-H34 (2 μg/ml in PBS containing 0.1% BSA) and then added to each well. The samples were incubated for 2 h at room temperature with gentle shaking and then washed 3 times with 0.1% BSA in PBS. 50 μl of peroxidase-streptavidin (Zymed, S. San Francisco, Calif.) solution containing 0.416 μg/ml of peroxidase-streptavidin and 0.1% BSA in PBS was added to each well. The samples were incubated for an additional 1 h at room temperature and then washed 4 times with 0.1% BSA in PBS. 50 μl of O-phenylenediamine solution (1 μg/ml O-phenylene-diamine and 0.03% hydrogen peroxide in 0.2M citrate buffer pH 4.5) was added to each well and the samples were incubated in the dark for 30 min., at room temperature. Optical density of the sample and the reference were read at 450 nm and 650 nm, respectively. TNF-α levels were determined from a graph relating the optical density at 450 nm to the concentration used.
The IC50 value was defined as the concentration of the test compound corresponding to half-maximal reduction in 450 nm absorbance. Compounds of the invention were active in this assay. The activity of selected compounds is shown below.

p38 MAP kinase = target: T1, p38 MAP kinase (Homo sapiens, UniProt Q16539); assay: Inhibition of p-38 (MAP) kinase, in vitro assay (transfer of γ-33P from ATP to Myelin Basic Protein); assay type: biochemical; settings: phosphorylated recombinant p38 MAP kinase, MBP substrate, γ-33P-ATP, 30° C.; read-out: IC50, μM (p-38 inhibitory activity)
T1 construct: made in house; host or cells: E. coli (co-expressed with SEK-1 and MEKK to obtain the phosphorylated form)
T1 sequence (Q16539 whole entry): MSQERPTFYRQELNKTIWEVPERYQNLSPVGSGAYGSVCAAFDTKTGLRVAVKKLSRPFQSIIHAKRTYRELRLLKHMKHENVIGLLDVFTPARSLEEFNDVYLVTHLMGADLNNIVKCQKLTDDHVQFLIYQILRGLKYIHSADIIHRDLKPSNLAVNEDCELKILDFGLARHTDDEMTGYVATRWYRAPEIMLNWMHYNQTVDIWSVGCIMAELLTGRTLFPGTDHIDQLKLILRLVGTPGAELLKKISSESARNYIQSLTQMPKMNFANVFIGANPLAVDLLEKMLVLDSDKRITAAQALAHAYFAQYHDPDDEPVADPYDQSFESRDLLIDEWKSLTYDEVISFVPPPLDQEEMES
Experimental: The p-38 MAP kinase inhibitory activity of compounds of this invention in vitro was determined by measuring the transfer of the γ-phosphate from γ-^33P-ATP by p-38 kinase to Myelin Basic Protein (MBP), using the a minor modification of the method described in Ahn, N. G.; et al. J. Biol. Chem. Vol. 266(7), 4220-4227, (1991).
The phosphorylated form of the recombinant p38 MAP kinase was expressed with SEK-1 and MEKK in E. Coli and then purified by affinity chromatography using a Nickel column.
The phosphorylated p38 MAP kinase was diluted in kinase buffer (20 mM 3-(N-morpholino)propanesulfonic acid, pH 7.2, 25 mM β-glycerol phosphate, 5 mM ethylene glycol-bis(beta-aminoethyl ether)-N,N,N′,N′-tetraacetic acid, 1 mM sodium vanadate, 1 mM dithiothreitol, 40 mM magnesium chloride). Test compound dissolved in DMSO or only DMSO (control) was added and the samples were incubated for 10 min at 30° C. The kinase reaction was initiated by the addition of a substrate cocktail containing MBP and γ-^33P-ATP. After incubating for an additional 20 min at 30° C., the reaction was terminated by adding 0.75% phosphoric acid. The phosphorylated MBP was then separated from the residual γ-^33P-ATP using a phosphocellulose membrane (Millipore, Bedford, Mass.) and quantitated using a scintillation counter (Packard, Meriden, Conn.).
Compounds of the invention were active in this assay.

TNF-α Production In Rats = assay: Inhibition of LPS-induced TNF-α production in rats, in vivo assay; set-up: species or system rat; settings: dosed orally at 30 mg, LPS 50 μg/kg intraperitoneally after 30 min, serum TNF-α 1.5 h later
Experimental: The ability of the compounds of this invention to inhibit the TNF-α release, in vivo, was determined using a minor modification of the methods described in described in Zanetti, G.; Heumann, D., et. al. “Cytokine production after intravenous or peritoneal Gram-negative bacterial challenge in mice,” J. Immunol., 148, 1890, (1992) and Sekut, L., Menius, J. A., et. al., “Evaluation of the significance of elevated levels of systemic and localized tumor necrosis factor in different animal models of inflammation,” J. Lab. Clin. Med., 124, 813, (1994).
Female Sprague-Dawley rats weighing 110-140 grams (Charles River, Hollister, Calif.) were acclimated for one week. Groups containing 8 […] each were dosed orally either with the test compounds dissolved in an aqueous vehicle containing 0.9% sodium chloride, 0.5% sodium carboxymethyl-cellulose, 0.4% polysorbate 80, 0.9% benzyl alcohol (CMC vehicle) or only vehicle (control group). After 30 min., the mice were injected intraperitoneally with 50 μg/kg of LPS (Sigma, St. Louis, Mo.). After 1.5 h, the mice were sacrificed by CO2 inhalation and blood was harvested by cardiocentesis. Blood was clarified by centrifugation at 15,600×g for 5 min., and sera were transferred to clean tubes and frozen at −20° C. until analyzed for TNF-α by ELISA assay (Biosource International, Camarillo, Calif.) following the manufacturer's protocol. […]

IC50 [1] [µM] | IC50 (p38 MAP kinase) [µM] | melting point [°C] | SMILES | % Inhibition (TNF-α content in test group relative to vehicle treated group) (TNF-α Production In Rats) [%]
0.61 | 2.18 |  | Nc1c(C(=O)c2cccc(OCCCN3CCCCC3)c2)cnn1-c1ccc(F)cc1 [compound 21] | 
0.83 | 2.72 |  | N#CCCCOc1cccc(C(=O)c2cnn(-c3ccc(F)cc3)c2N)c1 [compound 27] | 
0.17 | 6.52 | 165.2 to 165.8 | Nc1cccc(C(=O)c2cnn(-c3ccc(F)cc3)c2N)c1 [compound 43, 5-amino-4-(3-aminobenzoyl)-1-(4-fluorophenyl)pyrazole] | 
0.14 | 1.12 | 156.2 to 160.9 | Nc1c(C(=O)c2cccc(N3CCC(Cc4ccccc4)CC3)c2)cnn1-c1ccc(F)cc1 [compound 33] | 

More lines, now with the values behind:

SMILES | IC50 [1] [µM] | IC50 (p38 MAP kinase) [µM] | melting point [°C] | % Inhibition (TNF-α content in test group relative to vehicle treated group) (TNF-α Production In Rats) [%]
Nc1c(C(=O)c2cccc(C=CCN3CCOCC3)c2)cnn1-c1ccc(F)cc1 [compound 4] | 1.26 | 6.18 | 161.6 to 162.8 | 
Nc1c(C(=O)c2cccc(OCCN3CCOCC3)c2)cnn1-c1ccc(F)cc1 [compound 13, 5-amino-1-(4-fluorophenyl)-4-[3-(2-morpholin-4-ylethoxy)benzoyl]pyrazole] | 0.77 |  |  | 
Nc1c(C(=O)c2ccc(C=CCN3CCOCC3)cc2)cnn1-c1ccc(F)cc1 [compound 2] | 6.3 | 3.29 | 166.7 to 168.2 | 
CN1CCN(CC#Cc2cccc(C(=O)c3cnn(-c4ccc(F)cc4)c3N)c2)CC1.Cl.Cl [compound 8, 5-amino-1-(4-fluorophenyl)-4-{3-[3-(4-methylpiperazin-1-yl)prop-1-ynyl]benzoyl}pyrazole.2HCl] |  |  |  | 86
Nc1c(C(=O)c2cccc(C=CS(N)(=O)=O)c2)cnn1-c1ccc(F)cc1 [compound 10, 5-amino-4-[3-(2-aminosulfonylethenyl)benzoyl]-1-(4-fluorophenyl)pyrazole] | 1.62 |  |  | 
Nc1c(C(=O)c2ccc(CCCO)cc2)cnn1-c1ccccc1 [compound 1] | 1.77 | 1.81 | 148 to 152.5 | 
CN1CCN(C(=O)COc2cccc(C(=O)c3cnn(-c4ccc(F)cc4)c3N)c2)CC1 [compound 38] | 0.69 | 6.31 |  | 
